Measured values as given in US8481484B2, “Cyclic heptapeptide and use of the same” (National University Corporation Nagoya University, priority 2007, dated 2013).

The compounds below were run on Murine preadipocytes (3T3-L1) (assay: Fat accumulation in 3T3-L1 preadipocytes during induced differentiation (Triglyceride E-test)). Details: 3T3-L1, differentiation-inducing medium with test compound, seven days; stated in words, numbers only in FIG. 7.
Type: cell-based
Experimental: Murine preadipocytes (3T3-L1) have such a property as to accumulate fat following differentiation. In the present test, while differentiation of 313-L1 preadipocytes was induced by insulin and the like, test compounds were simultaneously added. Then, an amount of fat in the cells was measured to evaluate that the test compounds exert inhibition of differentiation of the preadipocytes or an inhibitory effect on fat accumulation following differentiation. In this test, in a case where cells die due to the test compounds, there is concern that the test might unintentionally result in a low fat accumulation rate, which is seemingly a favorable result. […] Also, fat accumulation was observed under a microscope from time to time during the test.
Preadipocytes (3T3-L1) were cultured to confluence in the presence of 5% CO2 at 37° C. for two days in 150 μL of culture media (DMEM containing 10% fetal bovine serum (glucose concentration of […])) in two 96-well microplates. Then, with respect to both plates, the culture media were aspirated and replaced with 150 μL of differentiation-inducing media containing a certain concentration of test compounds (DMEM containing 10% fetal bovine serum (glucose concentration of […]) in which 1 μM dexamethasone, 10 μg/mL insulin, and 0.5 mM 3-isobutyl-1-methylxanthine were dissolved). Normally, methanol solution containing a 200-fold concentration of test compounds (1a, 1b, 1c, 1d, and 1e) was prepared, and 7.5 μL of the solution was added with respect to 1.5 mL of the differentiation-inducing media. At this time, a well that was not replaced with the differentiation-inducing medium and a well to which only methanol was added instead of a sample solution were prepared as a control. The plates were cultured in the presence of 5% CO2 at 37° C. for seven days. Thereafter, one plate was served for measurement of an amount of fat, and the other plate was served for measurement of a survival rate.
To each well of the plate for measurement of an amount of fat, 10 μL of 2% Triton X-100 was added, and the plate was left to stand for 30 minutes. Subsequently, the plate was sealed with a sealing tape (a product of Asahi Techno Glass Corporation) and sonicated for one minute in an ultrasonic cleaner. Subsequently, 20 μL of solution was collected from each well and added to a 96-well microplate in which 150 μL of Triglyceride E-test Wako (a product of Wako Pure Chemical Industries, Ltd.), a coloring reagent, had been added to each well, and then the plate was incubated at 37° C. for 30 minutes, after which absorbance (at 630 nm, control at 690 nm) was measured by a plate reader. A ratio of absorbance in a compound-added group to absorbance in a compound-free group was obtained as a percentage, which was provided as a fat accumulation rate. Fat accumulation rates with respect to a concentration in each sample were represented as a semilogarithmic graph. From this graph a compound concentration at which a fat accumulation rate was 50% was read off, which was provided as a 50% effective concentration (EC50). It can be interpreted that the smaller the EC50 value is, the stronger the inhibitory effect on differentiation of adipocytes or on fat accumulation in adipocytes is.
With `CC[C@H](C)[C@H]1NC(=O)[C@@H](C)NC(=O)[C@@H](C)N(C)C(=O)[C@H](C)N(C)C(=O)[C@H](CC(C)C)NC(=O)[C@H](CC(C)C)N(C)C(=O)[C@H](C)N(C)C1=O` [1a] the “EC50 (compound concentration at which the fat accumulation rate is 50%); inhibitory effect on differentiation of adipocytes or on fat accumulation” value was “excellently exerts an inhibitory effect on differentiation of adipocytes or on fat accumulation in adipocytes”.
With `CC[C@H](C)[C@H]1NC(=O)[C@@H](CO)NC(=O)[C@@H](C)N(C)C(=O)[C@H](C)N(C)C(=O)[C@H](CC(C)C)NC(=O)[C@H](CC(C)C)N(C)C(=O)[C@H](C)N(C)C1=O` [1e] the “EC50 (compound concentration at which the fat accumulation rate is 50%); inhibitory effect on differentiation of adipocytes or on fat accumulation” value was “excellently exerts an inhibitory effect on differentiation of adipocytes or on fat accumulation in adipocytes”.
In the case of `CC[C@H](C)[C@H]1NC(=O)[C@@H](CC(C)C)NC(=O)[C@@H](C)N(C)C(=O)[C@H](C)N(C)C(=O)[C@H](CC(C)C)NC(=O)[C@H](CC(C)C)N(C)C(=O)[C@H](C)N(C)C1=O` [1b], the “EC50 (compound concentration at which the fat accumulation rate is 50%); inhibitory effect on differentiation of adipocytes or on fat accumulation” value is reported as “excellently exerts an inhibitory effect on differentiation of adipocytes or on fat accumulation in adipocytes”.
`CC[C@H](C)[C@H]1NC(=O)[C@@H]([C@H](C)O)NC(=O)[C@@H](C)N(C)C(=O)[C@H](C)N(C)C(=O)[C@H](CC(C)C)NC(=O)[C@H](CC(C)C)N(C)C(=O)[C@H](C)N(C)C1=O` [1d] was tested, and the “EC50 (compound concentration at which the fat accumulation rate is 50%); inhibitory effect on differentiation of adipocytes or on fat accumulation” value was “excellently exerts an inhibitory effect on differentiation of adipocytes or on fat accumulation in adipocytes”.
In the case of `CC[C@H](C)[C@H]1NC(=O)[C@@H](COCc2ccccc2)NC(=O)[C@@H](C)N(C)C(=O)[C@H](C)N(C)C(=O)[C@H](CC(C)C)NC(=O)[C@H](CC(C)C)N(C)C(=O)[C@H](C)N(C)C1=O` [1c], the “EC50 (compound concentration at which the fat accumulation rate is 50%); inhibitory effect on differentiation of adipocytes or on fat accumulation” value is reported as “excellently exerts an inhibitory effect on differentiation of adipocytes or on fat accumulation in adipocytes”.
